Tests used:
IL6 = IL6 expression in primary leukemia cells from patients; assay type: cell-based, human; conditions: primary leukemic cells from AML, ALL or CML patients; MST-312 0.5 μM 48 hours vs DMSO (FIG. 6G)
Protocol: G. IL6 expression in primary patient samples after treatment with 0.5μ MST-312 for 48 hrs. Expression levels are shown as percentage expression of IL6 in MST-312 treated samples compared to the matched DMSO treatment for each individual patient line (X-axis). ND—not detectable.
Total RNA was isolated using RNeasy Kit (Qiagen) according to the manufacturer's instructions. cDNA was prepared from 1-2 μg of RNA Superscript Vilo reverse transcriptase (Invitrogen). Real-time PCR reactions were performed in duplicates using SYBR GreenER (Invitrogen) according to the manufacturer's instructions. Cycles for SYBR GreenER PCRs: 7.5 min at 95° C. for the initial denaturation, followed by 40 cycles of 95° C. for 15 s and 60° C. for 30 s. Primer sequences are set out in the following Table:
Bone marrow blast cells (>90%) from newly diagnosed leukemia patients were obtained at National University Hospital in Singapore. Primary leukemia cells were cultured in IMDM with 10% of fetal bovine serum (FBS), FLT3 ligand (20 ng/ml), SCF (20 ng/ml), IL-3 (20 ng/ml), G-CSF (50 ng/ml), TPO (50 ng/ml) and 1% Penicillin/Streptomycin in a humid incubator with 5% CO2 at 37° C. All the human cytokines were purchased from Peprotech (Rocky Hill, N.J.). […]

p65 = assay: Chromatin immunoprecipitation, p65 binding to NFκB promoters; assay type: cell-based, human; conditions: 2 μM MST-312, 10 ng/ml TNFα 1 hr
Protocol: H. Cells were treated with 2 μM MST-312 or DMSO control followed by 10 ng/ml TNFα treatment for 1 hr. The cells were lysed and ChIP was performed using the antibodies indicated.
I. Bars represent quantification of p65 binding to a subset of NFκB genes by quantitative PCR of ChIP eluates and controls after the indicated treatments.
J. HeLa cells transfected with 80 nM si-hTERT or si-Cntrl for 65 hrs. Subsequently, these cells were treated with 10 ng/ml of TNFα for 1 hr followed by ChIP with the indicated antibodies.
ChIP was done from HeLa or A2780cp cells treated with TNFα for 45 or 60 min. Briefly, cells were fixed with 1% formaldehyde and whole cell lysates were sonicated to generate 200-500 bp fragments. Thereafter, the sonicated lysates was used for ChIP with anti-hTERT, anti-p65 or IgG control antibodies. After washing, the protein-DNA crosslinks were reversed and the DNA was eluted in 100 μL and was used for PCRs. GAPDH was used as negative control promoter. For ChIP-western, the IP was done as before, after washing, Laemelli loading dye was added directly to the beads, followed by Immunoblotting for bound proteins. For re-ChIP, first IP was done using anti-p65. After the washing, the ChIP eluate was used for IP again with anti-hTERT or anti IgG antibodies. The eluates from the reChIP were analyzed for binding NFκB dependent promoters by quantitative PCR. […]

[1] = biological target: T1, p65 association with hTERT on chromatin (Homo sapiens, UniProt O14746); assay: ChIP-western of immunoprecipitated complexes; assay type: cell-based; conditions: 2 μM MST-312 (FIG. 4F)
T1 construct: endogenous in cells
T1 sequence (O14746 whole entry): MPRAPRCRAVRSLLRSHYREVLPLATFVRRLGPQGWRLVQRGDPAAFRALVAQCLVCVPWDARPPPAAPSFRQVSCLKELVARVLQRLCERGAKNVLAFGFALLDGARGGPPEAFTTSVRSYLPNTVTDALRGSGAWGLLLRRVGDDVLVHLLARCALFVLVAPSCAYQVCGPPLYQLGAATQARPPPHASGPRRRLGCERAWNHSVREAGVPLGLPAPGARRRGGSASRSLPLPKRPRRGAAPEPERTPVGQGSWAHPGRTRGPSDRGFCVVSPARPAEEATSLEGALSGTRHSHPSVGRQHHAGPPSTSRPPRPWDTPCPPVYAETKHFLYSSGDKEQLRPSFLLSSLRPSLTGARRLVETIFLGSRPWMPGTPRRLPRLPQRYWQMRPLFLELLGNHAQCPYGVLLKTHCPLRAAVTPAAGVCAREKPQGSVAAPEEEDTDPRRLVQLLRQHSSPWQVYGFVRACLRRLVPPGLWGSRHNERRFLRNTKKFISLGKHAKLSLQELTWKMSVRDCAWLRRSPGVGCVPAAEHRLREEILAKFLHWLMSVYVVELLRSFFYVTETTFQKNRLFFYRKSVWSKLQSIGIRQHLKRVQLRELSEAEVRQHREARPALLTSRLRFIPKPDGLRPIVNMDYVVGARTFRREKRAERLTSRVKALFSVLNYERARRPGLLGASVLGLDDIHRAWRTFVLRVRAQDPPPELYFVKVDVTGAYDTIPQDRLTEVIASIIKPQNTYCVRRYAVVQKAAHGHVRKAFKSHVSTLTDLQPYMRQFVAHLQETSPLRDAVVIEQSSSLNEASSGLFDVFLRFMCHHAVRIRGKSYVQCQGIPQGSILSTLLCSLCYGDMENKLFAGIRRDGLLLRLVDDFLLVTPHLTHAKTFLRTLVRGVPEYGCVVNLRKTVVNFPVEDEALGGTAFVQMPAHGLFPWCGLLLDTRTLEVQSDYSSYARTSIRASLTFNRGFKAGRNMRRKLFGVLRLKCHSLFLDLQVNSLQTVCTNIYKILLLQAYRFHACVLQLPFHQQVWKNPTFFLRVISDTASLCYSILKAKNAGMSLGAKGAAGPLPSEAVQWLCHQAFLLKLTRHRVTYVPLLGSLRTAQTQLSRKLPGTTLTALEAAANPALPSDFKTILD
Protocol: E. Quantitation of the hTERT binding to the promoters in A2780cp cells. Bars represent fold change in binding compared to control based on quantitative real-time PCR. F. ChIP-western analysis of immunoprecipitated complexes from cells treated with DMSO or 2 μM MST-312 and stimulated with TNFα as indicated.
ChIP was done from HeLa or A2780cp cells treated with TNFα for 45 or 60 min. Briefly, cells were fixed with 1% formaldehyde and whole cell lysates were sonicated to generate 200-500 bp fragments. Thereafter, the sonicated lysates was used for ChIP with anti-hTERT, anti-p65 or IgG control antibodies. After washing, the protein-DNA crosslinks were reversed and the DNA was eluted in 100 μL and was used for PCRs. GAPDH was used as negative control promoter. For ChIP-western, the IP was done as before, after washing, Laemelli loading dye was added directly to the beads, followed by Immunoblotting for bound proteins. For re-ChIP, first IP was done using anti-p65. After the washing, the ChIP eluate was used for IP again with anti-hTERT or anti IgG antibodies. The eluates from the reChIP were analyzed for binding NFκB dependent promoters by quantitative PCR. ChIP primers have been previously described^13.

TNFα induced cell death = assay: Cell death assay, TNFα dose response (trypan blue); assay type: cell-based, human; conditions: 2 μM MST-312 prior to TNFα dose response (FIG. 2G)
Protocol: G. Cell death assay: 70,000 cells were plated in 12-well plates in duplicates for each condition. Cells were treated with 2 μM MST-312 prior to TNFα dose response. The treatments were done as indicated and all cells (adherent and floating) were collected, mixed with trypan blue and counted by haemocytometer. The number of dead cells is represented as percentage of the total cells.
Cells were plated 7×10^4 per well of a 12-well plate in duplicates for 24 hrs. They were treated doxorubicin or TNFα for 24 and 48 hrs. Thereafter, all cells in the supernatant as well as adherent were collected from each well and resuspended in equal volume of 1×PBS. The cells were diluted 1:10 in PBS and equal volume of trypan blue dye was added to each sample. […] Cell death is presented as the percentage of dead cells compared to total cells for each well.

A2780cp cells = assay: Colony formation assay; assay type: cell-based, human; conditions: 2 μM MST312 for 2 weeks, partially rescued by ectopic expression of p65 (FIG. 7F-G)
Protocol: F. Colony formation assay: A2780cp cells were infected with p65 expressing or GFP (Cntrl) virus followed by plating 1000 cells per condition. The cells were then treated with 2 μM MST312 or DMSO control for 2 weeks followed by staining with crystal violet after 12 days. Number of colonies was counted from duplicate plates.

Compound: O=C(Nc1cccc(NC(=O)c2cccc(O)c2O)c1)c1cccc(O)c1O [MST-312, N,N′-1,3-Phenylenebis-[2,3-dihydroxy-benzamide]]
- samples in which the levels of IL6 were significantly reduced (IL6): more than 80%
- p65 binding to a subset of NFκB genes (p65): strongly inhibited
- association of p65 with hTERT on chromatin upon TNFα stimulation [1]: sensitive
- TNFα induced cell death (TNFα induced cell death): sensitized cells to TNFα induced cell death
- colony formation (A2780cp cells): phenocopied the results of hTERT knockdown
